Assay results: PubChem BioAssay AID1322 (NMMLSC, 2008)
Active and inactive are the calls of the source. The rule behind the calls is not given here.

Target: Bcl-2-like protein 1 (Homo sapiens) (UniProt Q07817)
Assay: Bim-Bcl-XL interaction inhibitors, potency, dose response, biochemical, multiplexed, bead flow cytometry, human Bcl-XL (AID 1322); for inhibition: test concentration not given here
Conditions: Bead-based flow cytometry, Bim peptide-Bcl-XL binding, MCF; for inhibition: hits give high values

Sequence of Bcl-2-like protein 1 (Homo sapiens) (Q07817 whole entry, looked up): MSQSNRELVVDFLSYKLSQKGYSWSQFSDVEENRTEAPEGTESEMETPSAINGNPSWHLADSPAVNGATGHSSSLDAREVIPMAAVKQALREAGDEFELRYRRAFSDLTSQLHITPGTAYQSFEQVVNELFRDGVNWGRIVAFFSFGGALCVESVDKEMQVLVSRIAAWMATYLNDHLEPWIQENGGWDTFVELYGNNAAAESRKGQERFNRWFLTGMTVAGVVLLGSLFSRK

Structure (SMILES)	inhibition	outcome
CCOC(=O)c1c(NC(C)=O)sc2c(O)c(Br)cc(Br)c12	inactive	
O=C(Nc1ccccc1N1CCOCC1)c1cccs1	inactive	
Cc1ccc(C)n1-c1cccc(C(=O)O)c1	inactive	
CCNC(=S)Nc1ccc(OCC)cc1	inactive	
CCc1cccc(NC(=O)COc2ccccc2)c1	inactive	
Clc1nssc1=Nc1ccc(Br)cc1		inactive
CCOC(=O)c1sc(N)c(C(=O)Nc2ccccc2OC)c1C	inactive	
COc1ccc2nc(C)cc(SCC(=O)N/N=C/c3ccc(O)cc3O)c2c1	inactive	
Cc1ccc(-c2cc(-c3ccc(Cl)cc3)c(C#N)c(N)n2)o1	inactive	
COc1ccc(NC(=O)Cc2c(F)cccc2Cl)c(OC)c1	inactive	
Cc1cccc(OCC(=O)NCC(=O)N/N=C/c2cc(Br)ccc2OCc2ccccc2)c1	inactive	
NC(=O)CSc1nnc(Cn2cnc3ccccc32)o1	inactive	
Cc1ccc(NC(=O)CC2S/C(=N/N=C/c3c[nH]c4ccccc34)NC2=O)cc1 (stereo not given)	inactive	
CCOc1cc(CNc2ccc(N3CCCCC3)cc2)cc(Br)c1OCC(=O)NC(C)(C)C		inactive
COC(=O)c1sc(NC(=O)c2ccc(Cn3cc(Cl)cn3)o2)c(C#N)c1C	inactive	
CN(CCCOc1ccccc1Br)Cc1ccccc1	inactive	
Cc1c(NC2=C(Cl)C(=O)N(c3ccccc3)C2=O)c(=O)n(-c2ccccc2)n1C	inactive	
COc1ccccc1Cn1nnc2c(=O)[nH]c(C3CCN(C(=O)c4ccc(C)cc4)CC3)nc21	inactive	
Cc1nc2ccccc2n1CSc1ccccc1	inactive	
COC(=O)c1sc2nc[nH]c(=O)c2c1C	inactive	
C/C(=N\NC(=O)Cn1nc(C)c([N+](=O)[O-])c1C)c1ccc(O)cc1	inactive	
CC(=O)OCCCNc1cc(Sc2nc3ccccc3s2)c2nonc2c1[N+](=O)[O-]	inactive	
Cc1cc(C)c2nc3nc(C)c(C)cc3c(N)c2c1	inactive	
Cc1ccc(-n2c(CSc3nc(C)cc(C)n3)nnc2SCC(=O)NCc2ccco2)cc1	inactive	
CC[n+]1c(/C=C/C=C/N(C(C)=O)c2ccccc2)sc2ccccc21	inactive	
CCOc1cccc(CNc2ccc(O)cc2)c1OCc1ccccc1Cl	inactive	
COc1ccc(N2CC(C(=O)Nc3nnc(SCC(=O)c4ccccc4)s3)CC2=O)cc1 (stereo not given)	inactive	

Structure (SMILES)	inhibition	outcome
Cc1ccc(-c2cc(-c3ccc(F)cc3)c(C#N)c(N)n2)o1	inactive	
CCSc1nnc(NC(=O)c2c(-c3ccccc3Cl)noc2C)s1	inactive	
CCC(CC)C(=O)Nc1cccc(S(=O)(=O)c2cccc(NC(=O)C(CC)CC)c2)c1	inactive	
CC(C)NS(=O)(=O)c1ccc(OCC(=O)Nc2ccc(F)cc2)cc1	inactive	
Cc1ccccc1-c1nc(-c2ccc(NC(=O)c3ccc4c(c3)OCO4)cc2)no1	inactive	
CCN(CC)c1ccc(NC(=O)COc2ccccc2C)cc1S(=O)(=O)Nc1ccccc1OC	inactive	
CN1N=C(C(=O)N2CCCC(C(=O)c3cccc(C(F)(F)F)c3)C2)CCC1=O (stereo not given)	inactive	
COc1cc(/C=C2\S/C(=N/S(=O)(=O)c3ccccc3)NC2=O)c([N+](=O)[O-])cc1OC	inactive	
CCn1c(SCC(=O)Nc2ccccc2-c2ccccc2)nnc1-c1ccoc1C	inactive	
O=C(Cc1ccc(-c2ccccc2)cc1)NC1CCCC1	inactive	
CCC(=O)OCCNc1cc(Sc2nc3ccccc3[nH]2)c2nonc2c1[N+](=O)[O-]	inactive	
CCn1c(SCC(=O)Nc2ccc(C)cc2)nnc1-c1ccc(O)cc1	inactive	
COc1cc(/C=N/Nc2nc3c(c(=O)n(C)c(=O)n3C)n2Cc2ccccc2)ccc1OC(=O)c1ccco1		inactive
CC1=NN(c2ccc(C)cc2)C(=O)/C1=C\c1ccc(Br)s1	inactive	
COc1ccc(-n2c(SCC(=O)Nc3ccc(C(=O)O)cc3)nnc2-c2cccs2)cc1	inactive	
CC(C)n1nnnc1SCC(=O)N1CCN(C(=O)c2ccco2)CC1	inactive	
COC(=O)c1ccc(C)c(NC(=O)CCNC(=O)c2ccc([N+](=O)[O-])cc2)c1	inactive	
CCc1ccc(NC(=O)CC2NCCNC2=O)cc1 (stereo not given)	inactive	
Fc1ccc(C2=Nn3c(Cc4ccccc4F)nnc3SC2)cc1	inactive	
Cc1ccc(C(=O)N/N=C2/NC(=O)CC(C(=O)Nc3ccccc3)S2)cc1 (stereo not given)	inactive	
CC(C)(C)C1CCC(=NNC(=O)c2cc3c(s2)CCCC3)CC1 (stereo not given)	inactive	
CCOc1ccccc1/C=N/NC(=O)CNC(=O)COc1ccccc1		inactive
Cc1ccc(-c2n[nH]c(=S)n2-c2ccccc2)cc1	inactive	
Cc1ccccc1/C=N/Nc1ccnc2cc(Cl)ccc12	inactive	
COc1ccc(C2(NC(C)=O)CCN(C(=O)c3ccco3)CC2)cc1	inactive	
Fc1ccc(Cn2nnnc2C(c2ccc(Cl)cc2)N2CCSCC2)cc1 (stereo not given)	inactive	
S=C1NC2=C(CCC/C2=C\c2ccccc2)C(c2ccccc2)N1 (stereo not given)	inactive	

Structure (SMILES)	inhibition	outcome
CC(C)C(=O)N1CCN(c2ccc([N+](=O)[O-])cc2Cl)CC1	inactive	
Fc1ccccc1/C=C1\CCCC2=C1NC(=S)NC2c1ccccc1F (stereo not given)	inactive	
Cc1ccc(-c2c3c([nH]c(=S)c2C#N)CCCC3)o1	inactive	
COC(=O)c1ccc(/C=N/NC(=O)CC(=O)NCc2cccnc2)cc1		inactive
Cc1sc(NC(=O)Cn2cnnn2)nc1-c1ccc(Cl)cc1	inactive	
Cc1ccc2c(c1)c(C)c(C)n2CC(O)Cn1nc(C)c(Br)c1C (stereo not given)	inactive	
CCOc1ccccc1NC(=O)CSc1nnc2ccc(-c3cccnc3)nn12	inactive	
O=c1[nH]c(SCc2nc3ccccc3c(=O)n2-c2ccccc2C(F)(F)F)nc2ccccc12	inactive	
CN(Cc1ccccc1)C(=O)c1[nH]cnc1C(=O)N[C@@H](CCCCNC(=O)OC(C)(C)C)C(=O)OC(C)(C)C	inactive	
Cc1ccc(-c2cc(-c3ccc(C)o3)nc(N)c2C#N)cc1	inactive	
Cc1ccc(/C=C2\CCCC3=C2NC(=S)NC3c2ccc(C)cc2)cc1 (stereo not given)	inactive	
CC(=O)NC1=C(NC2CCS(=O)(=O)C2)C(=O)c2ccccc2C1=O (stereo not given)	inactive	
C/C(=N\NC(=O)COc1ccc(C(C)(C)C)cc1)c1ccc2c(c1)OCCO2	inactive	
O=C(CCl)Nc1cccc2ncccc12	inactive	
Cc1nc(NC(=O)CC(C)C)sc1-c1csc(Nc2ccc(Cl)cc2)n1	inactive	
CCN1/C(=C/c2ccc3cc(C)ccc3[n+]2CC)Sc2cc(C)c(C)cc21	inactive	
Cc1ccc(-c2cc(-c3ccccc3)c(C#N)c(N)n2)o1	inactive	
Cn1c(N)c(C(=O)COC(=O)c2cncc(Br)c2)c(=O)n(C)c1=O		inactive
CN(C)C(Cc1ccccc1)C(=O)c1cccs1 (stereo not given)		inactive
CC1=CC(=O)c2c(O)ccc(O)c2C1=O	inactive	
CC(C)(C)C(=O)NC(NC(=S)Nc1ccc(S(N)(=O)=O)cc1)C(Cl)(Cl)Cl (stereo not given)	inactive	
Cc1cccc(C(=O)N2CCC(c3nc(-c4ccc(S(=O)(=O)N5CCOCC5)cc4)no3)CC2)c1	inactive	
COc1cc(/C=C2/NC(=O)N(Cc3ccccc3F)C2=O)cc(OC)c1O	inactive	
C/C(=N/NC(=O)c1cc(O)c(O)c(O)c1)c1ccc([N+](=O)[O-])cc1		inactive
NCC(c1ccccc1)c1c[nH]c2ccccc12 (stereo not given)	inactive	
Cc1cc(N)ccc1N1CCCC1	inactive	
CCCC(=O)OCCNc1cc(Sc2nccn2C)c2nonc2c1[N+](=O)[O-]	inactive	

Structure (SMILES)	inhibition	outcome
CC1C=CCC2C(=O)N(c3ccc(OC(=O)c4cccs4)cc3)C(=O)C12 (stereo not given)		inactive
O=C(COc1ccc(Br)cc1CNC1CCCCC1)NCCc1ccccc1	inactive	
Cc1ccc(CC(=O)OCCNC(=O)c2cccnc2)cc1	inactive	
CN(C)c1cccc(NC(=O)C2(C)CC2(Cl)Cl)c1 (stereo not given)		inactive
OC(COc1ccc2ccccc2c1)CN1CCCC1 (stereo not given)	inactive	
O=C(O)/C=C/C(=O)NNC(=O)c1ccc(Br)cc1		inactive
COC(=O)c1cc(OC)c(OC)cc1NC(=O)Nc1cccc(C(C)=O)c1	inactive	
CCCCN(C(=O)CCC(=O)Nc1cc(C)on1)C(C(=O)NC(C)(C)C)c1cccc(OC)c1OC (stereo not given)	inactive	
Cc1ccc(-c2nc(N3CCOCC3)s[n+]2-c2ccccc2)cc1	inactive	
COCCn1nnnc1CN(Cc1ccco1)Cc1cc2cc3c(cc2[nH]c1=O)OCO3	inactive	
Clc1nssc1=Nc1ccccc1	inactive	
CNCc1ccccc1Sc1ccc(O)c(O)c1	inactive	
COc1cc(C2Nc3cccc4cccc(c34)N2)ccc1OC(C)=O	inactive	
O=C1c2ccccc2C(=O)c2cc(S(=O)(=O)Nc3ccccc3)ccc21		inactive
CCN=c1scc(C)n1/N=C/c1ccc(O)c(O)c1O	inactive	
COc1ccc(S(=O)(=O)NCCOc2cccc3cccnc23)cc1OC		inactive
Nc1ccc(C2=Nc3cccc4cccc(c34)N2)cc1	inactive	
CC(NC(=O)Nc1ccccn1)N1C(=O)C2C3C=CC(C3)C2C1=O (stereo not given)	inactive	
CCOC(=O)CSC1=NC(=O)/C(=C/c2ccc(Br)cc2)S1		inactive
Cc1cc(NC(=O)CCCC(=O)N(CC(=O)NC2CCCCC2)c2ccccc2)no1	inactive	
Cc1[nH]nc(SCC(=O)NCc2ccc(F)cc2)c1[N+](=O)[O-]	inactive	
c1ccc(Nc2nc(-c3ccncc3)cs2)cc1	inactive	
O=C(Nc1ccc2nc(-c3ccco3)c(-c3ccco3)nc2c1)NC1CC1	inactive	
Cc1noc(C)c1COc1ccc(C(=O)Nc2cccnc2)cc1	inactive	
